# Assay results taken from ChEMBL document CHEMBL1201862, “PubChem BioAssay data set” (2004).
# Calls of active or inactive are those of the source.
# How the values were obtained:
# Aminopeptidase N = molecular target: T1, Aminopeptidase N (Plasmodium falciparum FcB1/Columbia, UniProt O96935); test: malaria alanyl aminopeptidase activity blockers – biochemical, fluorogenic H-Leu-NHMec substrate, 1536-well (AID 1445); parameters: species or system Plasmodium falciparum 3D7, 3D7
# T1 sequence (O96935 whole entry): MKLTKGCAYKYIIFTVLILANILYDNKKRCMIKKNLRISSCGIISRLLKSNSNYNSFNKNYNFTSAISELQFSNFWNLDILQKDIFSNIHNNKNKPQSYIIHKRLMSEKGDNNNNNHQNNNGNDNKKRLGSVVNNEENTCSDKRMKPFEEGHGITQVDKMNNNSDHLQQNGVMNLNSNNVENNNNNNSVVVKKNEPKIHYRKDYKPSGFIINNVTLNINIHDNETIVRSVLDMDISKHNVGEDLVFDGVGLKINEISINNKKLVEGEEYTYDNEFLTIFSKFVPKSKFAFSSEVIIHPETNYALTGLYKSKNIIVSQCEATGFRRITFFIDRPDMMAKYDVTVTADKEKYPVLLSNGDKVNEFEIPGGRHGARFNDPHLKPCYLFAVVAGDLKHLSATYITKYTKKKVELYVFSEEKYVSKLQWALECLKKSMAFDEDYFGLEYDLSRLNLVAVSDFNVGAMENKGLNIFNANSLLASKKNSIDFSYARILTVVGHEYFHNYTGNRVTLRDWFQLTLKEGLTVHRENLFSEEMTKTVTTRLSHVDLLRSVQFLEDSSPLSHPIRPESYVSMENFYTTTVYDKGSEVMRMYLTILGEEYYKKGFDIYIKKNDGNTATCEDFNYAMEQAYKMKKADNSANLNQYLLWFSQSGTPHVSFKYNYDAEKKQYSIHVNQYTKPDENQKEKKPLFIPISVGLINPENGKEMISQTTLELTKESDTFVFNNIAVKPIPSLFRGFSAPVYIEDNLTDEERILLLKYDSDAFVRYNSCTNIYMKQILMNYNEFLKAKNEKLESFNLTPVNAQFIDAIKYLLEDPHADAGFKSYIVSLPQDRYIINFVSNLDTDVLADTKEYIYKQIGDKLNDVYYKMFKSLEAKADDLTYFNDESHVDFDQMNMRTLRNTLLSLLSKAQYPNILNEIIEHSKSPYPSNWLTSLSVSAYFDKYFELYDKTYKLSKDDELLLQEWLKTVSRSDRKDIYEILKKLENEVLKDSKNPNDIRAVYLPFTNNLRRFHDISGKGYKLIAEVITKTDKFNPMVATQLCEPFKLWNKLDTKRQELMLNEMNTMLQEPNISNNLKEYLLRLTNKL
# Genome polyprotein = Genome polyprotein (dengue virus type 2, UniProt P29990); test: flavivirus cap methylation enzyme inhibition – biochemical, confirmation dose response, primary screen (AID 588689); format: functional
# Chain of Genome polyprotein (P29990 2492-3391 limits assumed): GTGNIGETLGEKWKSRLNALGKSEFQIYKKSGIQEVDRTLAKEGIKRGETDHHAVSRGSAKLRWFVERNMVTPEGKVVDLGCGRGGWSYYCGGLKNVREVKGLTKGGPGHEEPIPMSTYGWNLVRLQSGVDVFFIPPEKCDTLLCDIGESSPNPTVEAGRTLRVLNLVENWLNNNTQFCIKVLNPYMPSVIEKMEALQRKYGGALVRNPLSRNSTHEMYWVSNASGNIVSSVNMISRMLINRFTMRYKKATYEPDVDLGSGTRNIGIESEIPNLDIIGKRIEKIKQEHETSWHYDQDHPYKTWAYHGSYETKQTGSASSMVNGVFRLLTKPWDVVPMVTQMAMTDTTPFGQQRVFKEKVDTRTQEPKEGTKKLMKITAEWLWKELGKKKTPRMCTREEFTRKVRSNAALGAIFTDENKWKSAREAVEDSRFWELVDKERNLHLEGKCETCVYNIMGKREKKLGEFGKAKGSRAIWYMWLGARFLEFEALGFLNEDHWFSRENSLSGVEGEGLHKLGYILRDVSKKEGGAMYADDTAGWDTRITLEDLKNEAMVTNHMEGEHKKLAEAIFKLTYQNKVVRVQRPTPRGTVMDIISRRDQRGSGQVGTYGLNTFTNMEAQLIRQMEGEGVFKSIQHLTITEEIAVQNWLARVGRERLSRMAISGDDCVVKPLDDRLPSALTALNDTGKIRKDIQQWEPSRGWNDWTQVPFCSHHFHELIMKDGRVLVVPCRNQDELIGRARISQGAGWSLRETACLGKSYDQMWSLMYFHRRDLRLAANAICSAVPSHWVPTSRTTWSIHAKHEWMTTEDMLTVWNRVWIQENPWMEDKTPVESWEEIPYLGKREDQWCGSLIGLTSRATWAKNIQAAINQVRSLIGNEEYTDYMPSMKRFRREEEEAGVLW
# SN12K1 = test: cells; format: functional; settings: Homo sapiens
# P388 = test: cells; format: functional; settings: Mus musculus
# P388/ADR = test: cells; format: functional; settings: Mus musculus
# Fatty acid synthase [1] = molecular target: T2, Fatty acid synthase (Homo sapiens, UniProt P49327); test: inhibition of human FAS-TE enzyme activity – biochemical, endpoint fluorescence intensity, uHTS hits, dose response (AID 624327); format: functional;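 also: fluorescence from hydrolysis of an O-methyl fluorescein acyl ester substrate by the enzyme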
# T2 sequence (P49327 whole entry): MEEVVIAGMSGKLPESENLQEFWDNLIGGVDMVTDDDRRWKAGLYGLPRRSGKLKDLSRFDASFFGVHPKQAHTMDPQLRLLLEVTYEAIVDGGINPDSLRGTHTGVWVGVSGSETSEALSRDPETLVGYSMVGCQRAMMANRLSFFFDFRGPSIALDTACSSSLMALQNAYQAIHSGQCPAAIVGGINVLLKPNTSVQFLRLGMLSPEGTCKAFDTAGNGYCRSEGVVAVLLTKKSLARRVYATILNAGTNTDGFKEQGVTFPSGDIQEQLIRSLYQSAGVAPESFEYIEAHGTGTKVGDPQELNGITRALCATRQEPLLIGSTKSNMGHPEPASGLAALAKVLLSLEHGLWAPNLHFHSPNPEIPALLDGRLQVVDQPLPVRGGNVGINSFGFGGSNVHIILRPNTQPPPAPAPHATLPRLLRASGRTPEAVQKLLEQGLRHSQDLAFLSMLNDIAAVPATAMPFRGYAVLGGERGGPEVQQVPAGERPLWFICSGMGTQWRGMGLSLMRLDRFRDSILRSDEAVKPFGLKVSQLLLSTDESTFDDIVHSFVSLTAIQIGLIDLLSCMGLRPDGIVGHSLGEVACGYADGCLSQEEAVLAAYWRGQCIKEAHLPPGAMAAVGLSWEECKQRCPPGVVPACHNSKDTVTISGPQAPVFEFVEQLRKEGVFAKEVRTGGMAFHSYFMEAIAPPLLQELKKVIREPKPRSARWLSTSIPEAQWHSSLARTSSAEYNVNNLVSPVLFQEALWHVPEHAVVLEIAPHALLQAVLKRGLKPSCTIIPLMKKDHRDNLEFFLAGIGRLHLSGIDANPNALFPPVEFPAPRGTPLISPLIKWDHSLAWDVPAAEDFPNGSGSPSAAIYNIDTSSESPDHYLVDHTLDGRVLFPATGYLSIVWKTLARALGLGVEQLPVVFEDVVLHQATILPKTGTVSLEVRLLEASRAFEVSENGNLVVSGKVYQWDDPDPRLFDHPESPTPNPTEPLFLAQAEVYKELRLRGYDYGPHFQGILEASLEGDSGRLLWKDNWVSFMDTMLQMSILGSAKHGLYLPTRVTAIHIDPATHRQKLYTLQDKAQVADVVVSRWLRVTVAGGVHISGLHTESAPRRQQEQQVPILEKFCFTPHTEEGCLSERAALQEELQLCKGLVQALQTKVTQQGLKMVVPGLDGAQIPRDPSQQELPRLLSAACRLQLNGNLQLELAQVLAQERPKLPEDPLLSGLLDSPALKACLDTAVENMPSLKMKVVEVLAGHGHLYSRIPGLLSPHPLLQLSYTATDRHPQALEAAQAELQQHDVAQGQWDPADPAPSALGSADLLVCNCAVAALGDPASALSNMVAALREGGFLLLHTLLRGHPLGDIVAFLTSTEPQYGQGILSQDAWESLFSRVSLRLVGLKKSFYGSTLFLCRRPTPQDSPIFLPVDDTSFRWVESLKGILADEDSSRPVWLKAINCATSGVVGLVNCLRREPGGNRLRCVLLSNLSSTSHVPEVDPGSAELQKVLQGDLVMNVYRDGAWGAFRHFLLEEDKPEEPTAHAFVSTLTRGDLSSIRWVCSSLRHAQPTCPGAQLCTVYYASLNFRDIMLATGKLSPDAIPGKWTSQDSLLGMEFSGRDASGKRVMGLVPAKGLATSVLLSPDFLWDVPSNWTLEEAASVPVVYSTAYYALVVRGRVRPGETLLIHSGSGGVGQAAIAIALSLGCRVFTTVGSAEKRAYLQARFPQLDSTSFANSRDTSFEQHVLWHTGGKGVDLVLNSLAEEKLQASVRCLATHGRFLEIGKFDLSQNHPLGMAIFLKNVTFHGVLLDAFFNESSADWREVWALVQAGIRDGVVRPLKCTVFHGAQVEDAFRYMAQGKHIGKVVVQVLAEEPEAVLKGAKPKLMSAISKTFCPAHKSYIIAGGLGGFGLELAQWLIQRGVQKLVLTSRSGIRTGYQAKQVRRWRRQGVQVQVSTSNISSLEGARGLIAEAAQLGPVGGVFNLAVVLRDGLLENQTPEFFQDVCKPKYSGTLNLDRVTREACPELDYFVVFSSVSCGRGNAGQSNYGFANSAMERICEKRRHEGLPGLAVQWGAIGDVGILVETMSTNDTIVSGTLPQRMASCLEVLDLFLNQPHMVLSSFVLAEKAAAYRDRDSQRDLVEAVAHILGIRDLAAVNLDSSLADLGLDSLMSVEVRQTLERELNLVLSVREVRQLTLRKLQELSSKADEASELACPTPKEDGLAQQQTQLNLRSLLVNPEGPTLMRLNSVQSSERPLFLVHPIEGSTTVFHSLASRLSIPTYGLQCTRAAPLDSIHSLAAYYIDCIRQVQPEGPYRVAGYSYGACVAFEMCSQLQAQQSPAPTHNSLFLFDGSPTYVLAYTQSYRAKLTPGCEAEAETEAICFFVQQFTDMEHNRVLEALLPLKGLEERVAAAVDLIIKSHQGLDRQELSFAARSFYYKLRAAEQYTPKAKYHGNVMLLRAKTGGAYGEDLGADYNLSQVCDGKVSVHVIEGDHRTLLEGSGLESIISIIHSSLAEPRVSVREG
# Fatty acid synthase [2] = molecular target: T2, Fatty acid synthase; test: inhibition of human FAS-TE enzyme activity – biochemical, kinetic fluorescence intensity, dose response (AID 624326); format: functional;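 also: rate of fluorescence rise from hydrolysis of a fluorogenic O-methyl fluorescein ester substrate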
# [3] = blockers of HIV-1 envelope-mediated cell-cell fusion – cherry-pick, dose response (AID 652057); format: functional, cell-based
# [4] = HIV-1 AD8 envelope cell-cell fusion blockers – cherry-pick, dose response (AID 652062); format: functional, cell-based;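 also: luciferase signal from cell-cell fusion driven by HIV-1 clade B AD8 Env; potency is for inhibitors of fusion seen as a drop in luminescence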
# [5] = molecular target: T3, Heat shock factor protein 1 (Mus musculus, UniProt P38532); test: enhancement of HSF1-driven luciferase signal – cell-based, NIH3T3, luminescence, dose retest, confirmation (AID 435004); format: functional;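 also: stress induced by proteasome inhibitor MG132 added 30 min after compound; luciferase reporter driven by HSF1 response element in NIH3T3 cells; actives raise luminescence as potentiators of the MG132 stress response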
# T3 sequence (P38532 whole entry): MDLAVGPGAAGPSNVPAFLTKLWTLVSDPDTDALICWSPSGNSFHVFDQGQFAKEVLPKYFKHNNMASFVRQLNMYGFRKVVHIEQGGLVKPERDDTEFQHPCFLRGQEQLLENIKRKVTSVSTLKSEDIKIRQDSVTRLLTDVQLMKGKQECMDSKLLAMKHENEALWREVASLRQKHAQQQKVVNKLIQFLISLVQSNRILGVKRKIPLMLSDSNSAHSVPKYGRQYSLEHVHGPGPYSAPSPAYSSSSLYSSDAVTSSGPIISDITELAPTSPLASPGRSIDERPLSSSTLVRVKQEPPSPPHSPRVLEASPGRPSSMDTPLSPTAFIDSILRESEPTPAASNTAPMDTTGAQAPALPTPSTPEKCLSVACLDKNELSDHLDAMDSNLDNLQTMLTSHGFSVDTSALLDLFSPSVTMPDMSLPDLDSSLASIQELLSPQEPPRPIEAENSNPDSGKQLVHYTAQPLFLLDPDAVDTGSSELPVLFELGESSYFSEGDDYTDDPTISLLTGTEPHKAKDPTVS
# [6] = blockers of HIV-1 ZM109 envelope-driven cell-cell fusion – HeLa effector, CEM target cells, luciferase, cherry-pick, dose response (AID 652058); format: functional, cell-based;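 also: luciferase signal from HIV-1 Env mediated cell-cell fusion of effector and target cells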
# [7] = off-target signal loss in HeLa-CEM21 co-culture – HeLa F-luc CTL cells, cherry-picked, counter-screen for HIV-1 Env fusion inhibitor project, dose response (AID 652040); format: functional, cell-based;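 also: potency for signal decrease marking cytotoxic or nonspecific inhibition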
# [8] = molecular target: FAD-linked sulfhydryl oxidase ALR (Homo sapiens, UniProt P55789); test: ALR-catalysed DTT oxidation blockers – biochemical, H2O2 detection, luminescence, cherry-pick, dose response (AID 493248)
# Chain of FAD-linked sulfhydryl oxidase ALR (P55789 whole entry): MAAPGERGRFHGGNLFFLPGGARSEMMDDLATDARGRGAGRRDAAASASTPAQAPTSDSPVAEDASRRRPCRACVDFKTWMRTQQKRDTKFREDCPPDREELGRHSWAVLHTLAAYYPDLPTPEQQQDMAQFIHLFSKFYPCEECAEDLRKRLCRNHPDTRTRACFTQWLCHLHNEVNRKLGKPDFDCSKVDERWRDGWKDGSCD
# Nonstructural protein 1 = Nonstructural protein 1 (Influenza A virus, UniProt Q194T2); format: functional, Influenza A virus (A/California/07/2009(H1N1))
# Chain of Nonstructural protein 1 (Q194T2 whole entry): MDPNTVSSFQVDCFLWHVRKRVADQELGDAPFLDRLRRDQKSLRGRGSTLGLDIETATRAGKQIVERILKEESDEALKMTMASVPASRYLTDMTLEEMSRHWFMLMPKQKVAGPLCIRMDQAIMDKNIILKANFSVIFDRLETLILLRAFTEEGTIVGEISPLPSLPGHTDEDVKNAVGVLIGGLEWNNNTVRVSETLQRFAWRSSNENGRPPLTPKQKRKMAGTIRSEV
# Large T antigen = Large T antigen (Simian virus 40, UniProt P03070); format: functional, Betapolyomavirus macacae;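 also: Confirmatory-stage PubChem screen for compounds that inhibit SV40 T antigen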
# Chain of Large T antigen (P03070 whole entry): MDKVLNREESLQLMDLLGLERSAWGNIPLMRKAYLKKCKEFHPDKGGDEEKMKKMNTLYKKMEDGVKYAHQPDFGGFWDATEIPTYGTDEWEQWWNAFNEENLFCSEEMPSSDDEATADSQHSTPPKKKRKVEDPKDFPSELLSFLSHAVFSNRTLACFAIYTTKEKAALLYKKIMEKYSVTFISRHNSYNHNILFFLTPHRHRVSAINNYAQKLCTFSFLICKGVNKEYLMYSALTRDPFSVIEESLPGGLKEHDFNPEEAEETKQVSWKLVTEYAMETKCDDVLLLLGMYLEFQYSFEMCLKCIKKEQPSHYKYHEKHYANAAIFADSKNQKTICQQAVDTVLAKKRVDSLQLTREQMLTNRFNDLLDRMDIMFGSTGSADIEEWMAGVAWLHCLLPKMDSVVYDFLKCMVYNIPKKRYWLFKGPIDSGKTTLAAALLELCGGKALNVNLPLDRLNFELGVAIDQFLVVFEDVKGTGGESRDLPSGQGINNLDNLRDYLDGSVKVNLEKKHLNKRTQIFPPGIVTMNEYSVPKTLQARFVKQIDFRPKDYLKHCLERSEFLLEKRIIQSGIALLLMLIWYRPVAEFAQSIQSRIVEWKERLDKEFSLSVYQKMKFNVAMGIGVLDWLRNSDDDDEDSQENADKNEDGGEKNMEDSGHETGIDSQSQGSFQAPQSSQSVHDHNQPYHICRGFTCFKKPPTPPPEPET
structure (smiles),measurement,setting,value
COC(=O)c1ccc(COc2ccccc2/C=N/Nc2cccc(C(=O)O)c2)cc1,IC50,Aminopeptidase N,47 µM (active)
same,IC50,Genome polyprotein,76.2 µM (active)
COc1cc2cc(c1Cl)N(C)C(=O)C[C@H](OC(=O)[C@H](C)N(C)C(C)=O)[C@]1(C)O[C@H]1[C@H](C)[C@@H]1C[C@@](O)(NC(=O)O1)[C@H](OC)/C=C/C=C(/C)C2,GI50,SN12K1,0.0262 µM (active)
same,GI50,P388,0.025 µM (active)
same,GI50,P388/ADR,0.025 µM (active)
Cc1ccc(S(=O)(=O)c2nnn3c2nc(NCCCN2CCCC2=O)c2ccccc23)cc1C,IC50,Fatty acid synthase [1],5.19 µM (active)
same,IC50,Fatty acid synthase [2],2.85 µM (active)
C=CC(=O)NC(=N)NC#N,GI50,SN12K1,> 100 µM (inactive)
same,GI50,P388,12.8 µM (inactive)
same,GI50,P388/ADR,25.8 µM (inactive)
COc1cccc(NC(=O)CN2C(=O)CSc3ccc(S(=O)(=O)N4CCCCC4)cc32)c1,IC50,Fatty acid synthase [1],8.72 µM (active)
same,IC50,Fatty acid synthase [2],9.58 µM (active)
C=CC[N+](CCO)(CCO)CCCCCCCCCCCCCCCCCC,GI50,SN12K1,6.08 µM (inactive)
same,GI50,P388,0.486 µM (active)
same,GI50,P388/ADR,5.3 µM (inactive)
COC(=O)NC1C(C)OC(OC2C/C=C(/C)C3C=CC4C(OC5CC(OC6CCC(OC7CC(O)C(OC8CCC(O)C(C)O8)C(C)O7)C(C)O6)C(OC(C)=O)C(C)O5)C(C)CC(C)C4C3(C)/C(O)=C3/C(=O)OC4(CC(C=O)=CC(O)C4/C=C\2C)C3=O)CC1(C)[N+](=O)[O-] (configuration not stated),GI50,SN12K1,0.262 µM (active)
same,GI50,P388,0.337 µM (active)
same,GI50,P388/ADR,2.64 µM (inactive)
O=c1cccc2n1CC1CC2CN(c2nc(N3CCCCC3)nc(N3CCCCC3)n2)C1 (configuration not stated),AC50,[3],1.69 µM (active)
same,AC50,[4],6.73 µM (active)
same,EC50,[5],> 260 µM (inactive)
same,AC50,[6],1.58 µM (active)
same,AC50,[7],3.76 µM (active)
Cc1nc(C)c(-c2csc(Nc3ccc(F)cc3)n2)s1,AC50,[8],0.185 µM (active)
C/C=C/c1cc2c(c(=O)o1)C(=O)[C@@H](O)[C@H](C)O2,GI50,SN12K1,17.1 µM (inactive)
same,GI50,P388,2.77 µM (inactive)
same,GI50,P388/ADR,2.89 µM (inactive)
COc1ccc(C)cc1NC(=O)CSc1ccc(-c2ccccn2)nn1,IC50,Nonstructural protein 1,9.77 µM (active)
COC(=O)c1ccc(N2CCc3ccccc32)c([N+](=O)[O-])c1,IC50,Nonstructural protein 1,24 µM (active)
CN(C)c1ccc(NC(=O)CSc2nnc(-c3cnccn3)n2C)cc1,IC50,Large T antigen,17.8 µM (active)
Cc1ccc(C)c(S(=O)(=O)Nc2ccc(O)cc2)c1,IC50,Large T antigen,11.1 µM (active)
CC(=O)c1cccc2c1OC(C)C(=O)N2Cc1ccc(Cl)cc1 (configuration not stated),IC50,Fatty acid synthase [1],9.15 µM (active)
same,IC50,Fatty acid synthase [2],5.63 µM (active)
Sc1n[nH]c(-c2csc3c2CCCC3)n1,AC50,[8],0.044 µM (active)
CN(CCCNC(=O)C1CCCN(S(=O)(=O)c2c[nH]cn2)C1)c1ccccc1 (configuration not stated),AC50,[8],0.085 µM (active)
O=C(CC(NCc1ccccn1)C(=O)O)Nc1ccccc1Cl (configuration not stated),IC50,Nonstructural protein 1,1.48 µM (active)
O=C1c2ccccc2C(=O)N1CCc1c[nH]c2ccc(O)cc12,IC50,Large T antigen,59.7 µM (active)
CCN(CC)c1ccc(CN(C(=O)c2cccs2)C2CCS(=O)(=O)C2)cc1 (configuration not stated),AC50,[8],2.65 µM (active)
C=CCCCCn1c2ccccc2c2c(C)c3cnccc3c(C)c21,GI50,SN12K1,5.97 µM (inactive)
same,GI50,P388,1.93 µM (inactive)
same,GI50,P388/ADR,1.84 µM (inactive)
Cc1ccc(CN2CCSc3ccc(C(=O)NCCCN4CCN(C)CC4)cc32)cc1,AC50,[8],0.195 µM (active)
